From patent US10980794B2, “PRMT5 inhibitors and uses thereof” (Epizyme, Inc., priority 2012, dated 2021)

How the values were obtained:
[1] = test system: symmetric di-methyl arginine in Z-138 cells; assay: Z-138 Methylation Assay (In Cell Western for symmetric di-methyl arginine and DNA content); type: cell-based; conditions: read-out: ICW EC50
Text: [formula] [formula] Where top and bottom are the normally allowed to float, but may be fixed at 100 or 0 respectively in a 3-parameter fit. The Hill Coefficient normally allowed to float but may also be fixed at 1 in a 3-parameter fit. Y is the % inhibition and X is the compound concentration.
RPMI/Glutamax medium, penicillin-streptomycin, heat inactivated fetal bovine serum, and D-PBS were purchased from Life Technologies, Grand Island, N.Y., USA. Odyssey blocking buffer, 800 CW goat anti-rabbit IgG (H+L) antibody, and Licor Odyssey infrared scanner were purchased from Licor Biosciences, Lincoln, Nebr., USA. Symmetric di-methyl arginine antibody was purchased from EMD Millipore, Billerica, Mass., USA. 16% Paraformaldehyde was purchased from Electron Microscopy Sciences, Hatfield, Pa., USA. […]
First, the ratio for each well was determined by:
Each plate included fourteen control wells of DMSO only treatment (minimum inhibition) as well as fourteen control wells for maximum inhibition treated with 3 μM of a reference compound (Background wells). The average of the ratio values for each control type was calculated and used to determine the percent inhibition for each test well in the plate. […] Percent inhibition was determined and IC50 curves were generated using triplicate wells per concentration of compound.

Z-138 cell line = assay: Z-138 Proliferation Assay (Cell Titer Glo, 5 days); type: cell-based; conditions: Z-138 cells
Text: RPMI/Glutamax medium, penicillin-streptomycin, heat inactivated fetal bovine serum were purchased from Life Technologies, Grand Island, N.Y., USA. V-bottom polypropylene 384-well plates were purchased from Greiner Bio-One, Monroe, N.C., USA. Cell culture 384-well white opaque plates were purchased from Perkin Elmer, Waltham, Mass., USA. Cell-Titer Glo® was purchased from Promega Corporation, Madison, Wis., USA. SpectraMax M5 plate reader was purchased from Molecular Devices LLC, Sunnyvale, Calif., USA.
A compound source plate was prepared by performing triplicate nine-point 3-fold serial dilutions in DMSO, beginning at 10 mM (final top concentration of compound in the assay was 20 μM and the DMSO was 0.2%). A 100 nL aliquot from the compound stock plate was added to its respective well in the cell plate. […] Luminescence was read in the SpectraMax M5 microplate reader. The concentration of compound inhibiting cell viability by 50% was determined using a 4-parametric fit of the normalized dose response curves.

CN(C[C@H](O)CN1CCc2ccccc2C1)C(=O)c1cc(NC2CCOCC2)ncn1 [Compound 232]
EC50 [1]: 101 to 1000 nM
EC50 (Z-138 cell line): 1000 to 10000 nM
